Experimental data: patent EP0874630B1, “TOP[…] POISON AND BIS-DIOXY[…] COMBINATION THERAPY” (priority 1996, dated 1997)
Values joined by “and” are separate entries in the source; they are usually repeats but may differ in a detail not shown here. Identical values can stand only once. Like-named read-outs stand apart in the source and are kept apart here.

How the values were obtained:
mice [1] = details: mouse
Method: First generation hybrids of female random bred Swiss mice and male inbred DBA (NDF1-hybrid) mice were used as previously described (5). The mice weighed between 19 and 21 g at the start of the experiments. […] Lethality was recorded and surviving mice were sacrificed after 60 days. Toxicity was evaluated by weight and leucocyte counts. For weight evaluations mice were treated with drugs, marked and weighed for eleven consecutive days. Blood for leucocyte counts was obtained from a tail vein and counted in a hemocytometer on days 3, 5 and 7 after treatment.

mice [2] = details: for increase in LD10 enabled by ICRF-187: LD10 of the topoisomerase II poison with ICRF-187 versus alone, mice
Text: Calculation of LD10 and LD50 using the maximum likelihood estimation. The 6 experiments in Table 2 are included in the computations.

[3] = system: Ehrlich's ascites tumour cells; test: Therapy study, mice inoculated i.p. with Ehrlich's ascites tumour cells (increase in life span); assay type: in vivo
Method: (§1) In therapy studies, mice were inoculated i.p. with either 10^5 L1210 leukemia cells or 15x10^6 Ehrlich's ascites tumour cells on day 0 and treated with drugs i.p. on day 4 after inoculation. The brain tumour model consisted of 10^4 L1210 cells or 15x10^4 Ehrlich's ascites tumour cells in a volume of 30 µl of isotonic sodium chloride inoculated on day 0 into the temporal region followed by treatment i.p. on day 2, 3 or 4 after inoculation.
(§2) 1×10^5 L1210 tumour cells or 15×10^6 Ehrlich's ascites tumour cells were inoculated i.p. on day 0 and mice were treated i.p. on day 4. The Mann Whitney test was used for statistical evaluation.

L1210 leukemia cells = test: Therapy study, mice inoculated i.p. with L1210 leukemia cells (increase in life span); assay type: in vivo
Method: as §1, §2

mice [4] = test: Lethality in healthy mice after drugs given once i.p., with or without ICRF-187 pretreatment (survivors/treated); assay type: in vivo; details: for survivors/treated: compiled data from two experiments
Method: Toxicity was evaluated by weight and leucocyte counts.
The compiled data from two experiments showing that paclitaxel induced lethality cannot be protected by pretreamtment with ICRF-187. Groups of 11 mice were treated once i.p. with or without pretreatment with ICRF-187.

[5] = NDF1 hybrid (female Swiss x male DBA), mouse, in vivo, ip, 60 days

Q: C[C@@H](CN1CC(=O)NC(=O)C1)N1CC(=O)NC(=O)C1 [ICRF-187, (+)-1,2-bis(3,5-dioxopiperazinyl-1-yl)propane] was tested. Which survivors/treated (mice [1]; NDF1 hybrid (female Swiss x male DBA), in vivo, 100 mg/kg, 60 days) did it give?
A: 11/11

Q: What about the “ICRF-187 mediated protection in vivo” value (mice [1]) of the same compound?
A: not obtained

Q: What about the LD10 (mice [2]; [5]) of the same compound?
A: 500 mg/kg

Q: What about the LD90 (mice [2]; [5]) of the same compound?
A: 1500 mg/kg

Q: What about the antitumour effect ([3]; ICRF-187 alone, mice inoculated i.p. with Ehrlich's ascites tumour) of the same compound?
A: no antitumour effect

Q: And the antitumour effect (L1210 leukemia cells; ICRF-187 alone, mice inoculated i.p. with L1210 tumour cells)?
A: no antitumour effect

Q: Which results are given for CC(=O)O[C@H]1C(=O)[C@@]2(C)[C@H]([C@H](OC(=O)c3ccccc3)[C@]3(O)C[C@H](OC(=O)[C@H](O)[C@@H](NC(=O)c4ccccc4)c4ccccc4)C(C)=C1C3(C)C)[C@]1(OC(C)=O)CO[C@@H]1C[C@@H]2O [Paclitaxel, paclitaxel]?
A: Survivors/ treated, % (mice [4]; Paclitaxel 30 mg/kg alone): 100%; survivors/treated (mice [4]; Paclitaxel 30 mg/kg alone): 22/22; Survivors/ treated, % (mice [4]; Paclitaxel 40 mg/kg alone): 55%; survivors/treated (mice [4]; Paclitaxel 40 mg/kg alone): 12/22; Survivors/ treated, % (mice [4]; Paclitaxel 50 mg/kg alone): 0%; survivors/treated (mice [4]; Paclitaxel 50 mg/kg alone): 0/22

Q: With COc1cc([C@@H]2c3cc4c(cc3[C@@H](O[C@@H]3O[C@@H]5CO[C@@H](C)O[C@H]5[C@H](O)[C@H]3O)[C@H]3COC(=O)[C@H]23)OCO4)cc(OC)c1O [etoposide] as the compound, how does the “increase in LD10 enabled by ICRF-187” value (mice [2]) read?
A: 3.6 fold

Q: And the LD10 (mice [2]; dose of etoposide killing 10% of the mice, maximum likelihood estimation, 6 experiments of Table 2, combination with 125 mg/kg ICRF-187, 125 mg/kg)?
A: 34 mg/kg and 33 mg/kg

Q: What about the LD10 (mice [2]; dose of etoposide killing 10% of the mice, maximum likelihood estimation, 6 experiments of Table 2, combination with 125 mg/kg ICRF-187, listed as VP-16, 125 mg/kg) of the same compound?
A: 34.0 mg/kg

Q: And the “log LD10” value (mice [2]; maximum likelihood estimation on the 6 experiments of Table 2, combination with 125 mg/kg ICRF-187)?
A: 1.531

Q: And the “ILS(%)” value ([3]; Etoposide 33 mg/kg i.p. on day 4, 15×10^6 Ehrlich's ascites tumour cells i.p. on day 0)?
A: 53% and 40% and 35%

Q: And the “increased life span, ILS(%) (etoposide alone set to 100)” value ([3]; Table 5A, Etoposide 33 mg/kg, Ehrlich's tumour cells i.p.)?
A: 100%

Q: What about the “ILS(%)” value (L1210 leukemia cells; Etoposide 33 mg/kg i.p. on day 4, 1×10^5 L1210 tumour cells i.p. on day 0) of the same compound?
A: 113% and 100% and 88%

Q: And the “increased life span, ILS(%) (etoposide alone set to 100)” value (L1210 leukemia cells; Table 5B, Etoposide 33 mg/kg, L 1210 tumour cells i.p.)?
A: 100%

Q: Which “increase in LD10 enabled by ICRF-187” value (mice [2]) does the source give for COc1cc([C@@H]2c3cc4c(cc3[C@@H](O[C@@H]3O[C@@H]5CO[C@@H](c6cccs6)O[C@H]5[C@H](O)[C@H]3O)[C@H]3COC(=O)[C@H]23)OCO4)cc(OC)c1O [teniposide] here?
A: 3.4 fold
